In BindingDB's records for PubMed 1987453 (Georgetown University, 1991):

The compounds below were run against Nicotinic acetylcholine receptor (Rattus leucopus, UniProt Q62594).
Chain of Nicotinic acetylcholine receptor (Q62594 whole entry): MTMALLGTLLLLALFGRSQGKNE

Structure (SMILES)	Ki
COc1cc2c3cc1Oc1cc(ccc1O)CC1c4c(cc(OC)c(O)c4Oc4ccc(cc4)CC3[N+](C)(C)CC2)CC[N+]1(C)C (centres undefined) [CAS_8063-06-7]	> 10 µM
C=C(C=O)C[C@H]1C[C@H](O)[C@]2(C)O[C@@H]3C[C@@H]4O[C@@H]5C[C@]6(C)O[C@]7(C)CC[C@@H]8O[C@@H]9C[C@]%10(C)O[C@@H]%11C(C)=CC(=O)O[C@H]%11C[C@H]%10O[C@H]9C[C@@H](C)[C@H]8O[C@H]7C[C@H]6O[C@@]5(C)C/C=C\[C@H]4O[C@H]3C[C@H]2O1	2 µM
CN1[C@@H]2CC[C@H]1CC(OC(=O)[C@H](CO)c1ccccc1)C2 (some centres undefined) [CAS_51-55-8]	> 10 µM
CNC(=O)Oc1ccc2c(c1)[C@]1(C)CCN(C)C1N2C (some centres undefined)	> 10 µM
